Assay results taken from ChEMBL document CHEMBL3045390, “Synthesis of 3-(5-bromo-2,3-dimethoxy-phenyl)-[1, 2, 4] oxadiazole analogues and their evaluation as anti-Parkinsons agents” (Med Chem Res, 2008).
Activity calls are given as the source filed them. The calls are words filed in the database; no cut-off is given here.

Legend:
[1] = Lipophilicity, log P of the compound; format: physicochemical; settings: octanol/water
[2] = system: Rattus norvegicus; assay: Neurotoxicity inRattus norvegicus albino (rat) assessed as motor coordination at 200 mg/kg, ip after 30 min by […]; format: toxicity, organism-based; parameters: dose 200 mg/kg, route intraperitoneal; settings: in vivo, 0.5 h
[3] = system: Rattus norvegicus; assay: Antiparkinson's activity in Rattus norvegicus albino (rat) assessed as reduction of chlorpromazine-induced catatonia at 100 mg/kg, ip administered 30 min before chlorpromazine challenge measured up to 180 min; format: functional, organism-based; parameters: dose 100 mg/kg
[4] = system: Rattus norvegicus; assay: Neurotoxicity inRattus norvegicus albino (rat) assessed as motor coordination at 10 mg/kg, ip after 30 min by […]; format: toxicity, organism-based; parameters: dose 10 mg/kg, route intraperitoneal; settings: in vivo, 0.5 h
[5] = system: Rattus norvegicus; assay: Antiparkinson's activity in Rattus norvegicus albino (rat) assessed as reduction of chlorpromazine-induced catatonia at 10 mg/kg, ip administered 30 min before chlorpromazine challenge measured up to 180 min; format: functional, organism-based; parameters: dose 10 mg/kg

Row | logP [1] | Structure (SMILES) | Activity [2] | Activity [3] | Activity [4] | Activity [5]
1 | 5.59 | COc1cc(Br)cc(-c2noc(C3CCN(Cc4ccccc4)CC3)n2)c1OC | Toxic | Active |  | 
2 | 5.52 | COc1cc(Br)cc(-c2noc(C3CCCN3Cc3ccccc3)n2)c1OC (stereo not drawn) | Toxic | Active |  | 
3 | 5.81 | COc1cc(Br)cc(-c2noc(C3CCCCN3Cc3ccccc3)n2)c1OC (stereo not drawn) | Toxic | Active |  | 
4 | 5.81 | COc1cc(Br)cc(-c2noc(C3CCCN(Cc4ccccc4)C3)n2)c1OC (stereo not drawn) | Toxic | Active |  | 

Continued, molecule first:

Row | Structure (SMILES) | logP [1] | Activity [2] | Activity [3] | Activity [4] | Activity [5]
5 | COc1cc(Br)cc(-c2noc(C3CCCN3C)n2)c1OC (stereo not drawn) | 3.79 | Non-toxic | Active |  | 
6 | COc1cc(Br)cc(-c2noc(C3CCN(C)CC3)n2)c1OC | 3.86 | Non-toxic | Active |  | 
7 | N[C@@H](Cc1ccc(O)c(O)c1)C(=O)O [LEVODOPA] |  |  |  | Non-toxic | inactive
8 | NCCc1ccc(O)c(O)c1 [DOPAMINE] |  |  |  | Non-toxic | inactive
9 | COc1cc(Br)cc(-c2noc(C3CCCCN3C)n2)c1OC (stereo not drawn) | 4.21 | Non-toxic | Active |  | 
10 | COc1cc(Br)cc(-c2noc(C3CCCN(C)C3)n2)c1OC (stereo not drawn) | 4.08 | Non-toxic | Active |  | 
